Measurements taken from PubChem BioAssay AID1259407 (Chemical Carcinogenesis Research Information System (CCRIS), 2018).
Calls of active or inactive are those of the source. The rule behind the calls is not given here.

Tested on: CCRIS mutagenicity, Ames/micronucleus/aberration tests
Assay: CCRIS mutagenicity studies
[1] = Test System: AMES SALMONELLA TYPHIMURIUM, Strain/Indicator: TA98, Metabolic Activation: HAMSTER, LIVER, S-9, AROCLOR 1254 (10%), Method: PREINCUBATION
[2] = Test System: AMES SALMONELLA TYPHIMURIUM, Strain/Indicator: TA98, Metabolic Activation: NONE, Method: PREINCUBATION
[3] = Test System: AMES SALMONELLA TYPHIMURIUM, Strain/Indicator: TA98, Metabolic Activation: NONE, Method: STANDARD PLATE
[4] = Test System: AMES SALMONELLA TYPHIMURIUM, Strain/Indicator: TA98, Metabolic Activation: RAT, LIVER, S-9, AROCLOR 1254 (10%), Method: PREINCUBATION
[5] = Test System: AMES SALMONELLA TYPHIMURIUM, Strain/Indicator: TA100, Metabolic Activation: HAMSTER, LIVER, S-9, AROCLOR 1254 (10%), Method: PREINCUBATION
[6] = Test System: AMES SALMONELLA TYPHIMURIUM, Strain/Indicator: TA100, Metabolic Activation: NONE, Method: PREINCUBATION
[7] = Test System: AMES SALMONELLA TYPHIMURIUM, Strain/Indicator: TA100, Metabolic Activation: NONE, Method: STANDARD PLATE
[8] = Test System: AMES SALMONELLA TYPHIMURIUM, Strain/Indicator: TA100, Metabolic Activation: RAT, LIVER, S-9, AROCLOR 1254 (10%), Method: PREINCUBATION
[9] = Test System: AMES SALMONELLA TYPHIMURIUM, Strain/Indicator: TA102, Metabolic Activation: NONE, Method: STANDARD PLATE
[10] = Test System: AMES SALMONELLA TYPHIMURIUM, Strain/Indicator: TA1535, Metabolic Activation: HAMSTER, LIVER, S-9, AROCLOR 1254 (10%), Method: PREINCUBATION
[11] = Test System: AMES SALMONELLA TYPHIMURIUM, Strain/Indicator: TA1535, Metabolic Activation: NONE, Method: PREINCUBATION
[12] = Test System: AMES SALMONELLA TYPHIMURIUM, Strain/Indicator: TA1535, Metabolic Activation: RAT, LIVER, S-9, AROCLOR 1254 (10%), Method: PREINCUBATION
[13] = Test System: AMES SALMONELLA TYPHIMURIUM, Strain/Indicator: TA1537, Metabolic Activation: HAMSTER, LIVER, S-9, AROCLOR 1254 (10%), Method: PREINCUBATION
[14] = Test System: AMES SALMONELLA TYPHIMURIUM, Strain/Indicator: TA1537, Metabolic Activation: NONE, Method: PREINCUBATION
[15] = Test System: AMES SALMONELLA TYPHIMURIUM, Strain/Indicator: TA1537, Metabolic Activation: RAT, LIVER, S-9, AROCLOR 1254 (10%), Method: PREINCUBATION
[16] = Test System: AMES SALMONELLA TYPHIMURIUM, Strain/Indicator: TA98, Metabolic Activation: RAT, LIVER, S-9, AROCLOR 1254, Method: STANDARD PLATE
[17] = Test System: AMES SALMONELLA TYPHIMURIUM, Strain/Indicator: TA100, Metabolic Activation: RAT, LIVER, S-9, AROCLOR 1254, Method: STANDARD PLATE
[18] = Test System: AMES SALMONELLA TYPHIMURIUM, Strain/Indicator: TA1537, Metabolic Activation: NONE, Method: STANDARD PLATE
[19] = Test System: AMES SALMONELLA TYPHIMURIUM, Strain/Indicator: TA1537, Metabolic Activation: RAT, LIVER, S-9, AROCLOR 1254, Method: STANDARD PLATE

| Structure (SMILES) | mutagenic call [1] | mutagenic call [2] | mutagenic call [3] | mutagenic call [4] | mutagenic call [5] | mutagenic call [6] | mutagenic call [7] | mutagenic call [8] | mutagenic call [9] | mutagenic call [10] | mutagenic call [11] | mutagenic call [12] | mutagenic call [13] | mutagenic call [14] | mutagenic call [15] | mutagenic call [16] | mutagenic call [17] | mutagenic call [18] | mutagenic call [19] | other results |
| --- | --- | --- | --- | --- | --- | --- | --- | --- | --- | --- | --- | --- | --- | --- | --- | --- | --- | --- | --- | --- |
| CC(C)=CCC/C(C)=C/C=O | inactive; negative | inactive; negative | inactive; negative | inactive; negative | inactive; negative | inactive; negative | inactive; negative | inactive; negative | inactive; negative | inactive; negative | inactive; negative | inactive; negative | inactive; negative | inactive; negative | inactive; negative | – | – | – | – | mutagenic call (Test System: AMES SALMONELLA TYPHIMURIUM, Strain/Indicator: TA97A, Metabolic Activation: NONE, Method: STANDARD PLATE): inactive; negative; mutagenic call (Test System: AMES SALMONELLA TYPHIMURIUM, Strain/Indicator: TA97A, Metabolic Activation: RAT LIVER S-9, AROCLOR 1254, Method: STANDARD PLATE): inactive; negative; mutagenic call (Test System: AMES SALMONELLA TYPHIMURIUM, Strain/Indicator: TA98, Metabolic Activation: RAT LIVER S-9, AROCLOR 1254, Method: STANDARD PLATE): inactive; negative; mutagenic call (Test System: AMES SALMONELLA TYPHIMURIUM, Strain/Indicator: TA100, Metabolic Activation: RAT LIVER S-9, AROCLOR 1254, Method: STANDARD PLATE): inactive; negative; mutagenic call (Test System: AMES SALMONELLA TYPHIMURIUM, Strain/Indicator: TA102, Metabolic Activation: RAT LIVER S-9, AROCLOR 1254, Method: STANDARD PLATE): inactive; negative |
| ClCc1cccc(CCl)c1 | – | – | inactive; negative | – | – | – | – | – | – | – | – | – | – | – | – | – | – | – | – | – |
| CCCCC(CC)COS(=O)(=O)O (stereo unspecified) | inactive; negative | inactive; negative | – | inactive; negative | inactive; negative | inactive; negative | – | inactive; negative | – | inactive; negative | inactive; negative | inactive; negative | inactive; negative | inactive; negative | inactive; negative | – | – | – | – | mutagenic call (End Point: IN VITRO CHROMOSOMAL ABERRATIONS, Test System: CHO-LB CELLS, Metabolic Activation: NONE): inactive; negative; mutagenic call (End Point: IN VITRO CHROMOSOMAL ABERRATIONS, Test System: CHO-LB CELLS, Metabolic Activation: RAT, LIVER, S-9, AROCLOR 1254): inactive; negative; mutagenic call (Test System: MOUSE LYMPHOMA, Strain/Indicator: L5178Y (TK+/TK-), Metabolic Activation: NONE, Method: SUSPENSION/PLATE): inactive; negative; mutagenic call (Test System: MOUSE LYMPHOMA, Strain/Indicator: L5178Y (TK+/TK-), Metabolic Activation: RAT, LIVER, S-9, AROCLOR 1254, Method: SUSPENSION/PLATE): inactive; negative |
| C1COCCOCCOCCOCCO1 | – | – | inactive; negative | – | – | – | inactive; negative | – | – | – | – | – | – | – | – | inactive; negative | inactive; negative | inactive; negative | inactive; negative | mutagenic call (Test System: AMES SALMONELLA TYPHIMURIUM, Strain/Indicator: TA1530, Metabolic Activation: NONE, Method: STANDARD PLATE): inactive; negative; mutagenic call (Test System: AMES SALMONELLA TYPHIMURIUM, Strain/Indicator: TA1530, Metabolic Activation: RAT, LIVER, S-9, AROCLOR 1254, Method: STANDARD PLATE): inactive; negative |
| O=c1c(Cl)c(Cl)cnn1S(=O)(=O)c1ccc([N+](=O)[O-])cc1 | – | – | active; positive | – | – | – | active; positive | – | – | – | – | – | – | – | – | inactive; negative | active; positive | inactive; negative | inactive; negative | mutagenic call (Test System: AMES SALMONELLA TYPHIMURIUM, Strain/Indicator: TA1535, Metabolic Activation: NONE, Method: STANDARD PLATE): inactive; negative; mutagenic call (Test System: AMES SALMONELLA TYPHIMURIUM, Strain/Indicator: TA1535, Metabolic Activation: RAT, LIVER, S-9, AROCLOR 1254, Method: STANDARD PLATE): active; positive |
| CNCCCC(=O)O | – | – | inactive; negative | – | – | – | inactive; negative | – | inactive; negative | – | – | – | – | – | – | inactive; negative | inactive; negative | – | – | mutagenic call (Test System: AMES SALMONELLA TYPHIMURIUM, Strain/Indicator: TA97, Metabolic Activation: NONE, Method: STANDARD PLATE): inactive; negative; mutagenic call (Test System: AMES SALMONELLA TYPHIMURIUM, Strain/Indicator: TA97, Metabolic Activation: RAT, LIVER, S-9, AROCLOR 1254, Method: STANDARD PLATE): inactive; negative; mutagenic call (Test System: AMES SALMONELLA TYPHIMURIUM, Strain/Indicator: TA98, Metabolic Activation: RAT, LIVER, S-9, AROCLOR 1254, Method: PREINCUBATION): inactive; negative; mutagenic call (Test System: AMES SALMONELLA TYPHIMURIUM, Strain/Indicator: TA102, Metabolic Activation: RAT, LIVER, S-9, AROCLOR 1254, Method: STANDARD PLATE): inactive; negative; mutagenic call (Test System: AMES SALMONELLA TYPHIMURIUM, Strain/Indicator: TA104, Metabolic Activation: NONE, Method: STANDARD PLATE): inactive; negative; mutagenic call (Test System: AMES SALMONELLA TYPHIMURIUM, Strain/Indicator: TA104, Metabolic Activation: RAT, LIVER, S-9, AROCLOR 1254, Method: PREINCUBATION): inactive; negative; mutagenic call (Test System: AMES SALMONELLA TYPHIMURIUM, Strain/Indicator: TA104, Metabolic Activation: RAT, LIVER, S-9, AROCLOR 1254, Method: STANDARD PLATE): inactive; negative; mutagenic call (Test System: AMES SALMONELLA TYPHIMURIUM, Strain/Indicator: TA2638, Metabolic Activation: NONE, Method: STANDARD PLATE): inactive; negative; mutagenic call (Test System: AMES SALMONELLA TYPHIMURIUM, Strain/Indicator: TA2638, Metabolic Activation: RAT, LIVER, S-9, AROCLOR 1254, Method: STANDARD PLATE): inactive; negative; mutagenic call (Test System: AMES SALMONELLA TYPHIMURIUM, Strain/Indicator: UTH8413, Metabolic Activation: NONE, Method: STANDARD PLATE): inactive; negative; mutagenic call (Test System: AMES SALMONELLA TYPHIMURIUM, Strain/Indicator: UTH8413, Metabolic Activation: RAT, LIVER, S-9, AROCLOR 1254, Method: STANDARD PLATE): inactive; negative; mutagenic call (Test System: AMES SALMONELLA TYPHIMURIUM, Strain/Indicator: UTH8414, Metabolic Activation: NONE, Method: STANDARD PLATE): inactive; negative; mutagenic call (Test System: AMES SALMONELLA TYPHIMURIUM, Strain/Indicator: UTH8414, Metabolic Activation: RAT, LIVER, S-9, AROCLOR 1254, Method: STANDARD PLATE): inactive; negative |
